One test deals with α7 nACh receptor N104C. Details: species or system chick. Conditions: no saturable binding. As to the method:
(§1) Mutagenesis was performed using the QuikChange method (Agilent Technologies Inc., CA, USA) to substitute amino acids throughout each of the binding loops A – F (Fig. 1). The α7 nACh-5-HT3 subunit cDNA was as described by Bertrand ([Eiselé et al., 1993]) and was cloned into pcDNA3.1 for expression in HEK293 cells. Human 5-HT3A cDNA (accession number: P46098) and mouse 5-HT3A cDNA (Q6J1J7) were cloned into the same vector. Cells were transiently transfected with this cDNA using either polyethyleneimine (PEI: 25 kDa, linear, powder, Polysciences Inc., Eppelheim, Germany) or Lipofectamine 2000 (Life Technologies, CA, USA) according to the manufacturer's instructions. 30 μl of PEI (1 mg ml^−1), 5 μg cDNA and 1 ml DMEM/F12 were incubated for 10 min at room temperature, added drop wise to a 90 mm plate of 70–80% confluent HEK293 cells, and incubated for 2–3 days before use.
(§2) Human embryonic kidney (HEK) 293 cells were grown on 90 mm round tissue culture plates as monolayers in DMEM/F12 (Life Technologies) supplemented with 10% fetal bovine serum (FBS; Sigma Aldrich) at 37 °C in a moist atmosphere containing 5% CO2.
(§3) Transfected HEK 293 cells were scraped into 0.6 ml of ice-cold 10 mM HEPES buffer (pH 7.4) and stored frozen. After thawing, they were washed with HEPES buffer, homogenised by passage through a 21 G needle, and 50 μg of cell suspension incubated in 0.5 ml HEPES buffer containing [^3H]epibatidine (55.8 Ci/mmol, Waltham, MA). Non-specific binding was determined using 300 μM (−)-nicotine. Equilibrium reactions were incubated on ice for at least 1 h. Incubations were terminated by vacuum filtration onto Whatman GF/B filters wetted with 0.3% polyethyleneimine, followed by two rapid washes with 2.5 ml ice cold buffer. Radioactivity was determined by scintillation in Ultima Gold XR (Perkin Elmer) using a Tri-Carb 2100 TR (PerkinElmer) scintillation counter. Final counts were monitored to ensure that binding never exceeded 10% of the added concentrations of radioligands.
(§4) All data were analysed using GraphPad Prism v5. Individual saturation binding experiments were fitted to Eq. (1):(1) […] where Bmax is maximum binding at equilibrium, Kd is the equilibrium dissociation constant and [L] is the free concentration of radioligand. Values from individual experiments were averaged to yield the mean ± sem. Affinities were compared using 1-way ANOVA and a Dunnett's Post-Test.

The next test addresses α7 nACh receptor W145C. Details: species or system chick. Conditions: no saturable binding. On the procedure: as §1, §2, §3, §4
A further test has as its target α7 nACh receptor W53C. On the set-up: species or system chick. Conditions: no saturable binding. As to the method:
as §1, §2, §3, §4

The target of another test is α7 nACh receptor Y184C. Details: species or system chick. Conditions: no saturable binding. As to the method:
as §1, §2, §3, §4

For another test, the target named is α7 nACh receptor Y191C. Details: species or system chick. The note with it: no saturable binding. On the procedure:
as §1, §2, §3, §4

The next test concerns the target α7 nACh receptor Y91C. On the set-up: species or system chick. The note with it: no saturable binding. On the procedure: as §1, §2, §3, §4
Test [1] deals with T1, wild type α7 nACh receptors (UniProt P22770+P23979).
T1 construct: directed against the 5-HT3 region of the chimaeric receptor; expressed in transfected cells; host or cells: HEK293
In kind it is binding, chick. As to the method:
as §1, §2, §3, §4

Test [2] has as its target T2, wild type α7 nACh receptors (UniProt P22770+P23979, M226I/T225I).
T2 construct: directed against the 5-HT3 region of the chimaeric receptor; expressed in transfected cells; host or cells: HEK293
The class given is binding, chick. The note with it: α7 nACh-5-HT3 chimaera in HEK 293 cells. On the procedure:
as §1, §2, §3, §4

The target of a further test is α7 nACh receptor C186A. In kind it is binding, chick. As to the method: as §1, §2, §3, §4
The target in the next test is α7 nACh receptor C187A. The class given is binding, chick. On the procedure: as §1, §2, §3, §4
The target of a further test is α7 nACh receptor D160C. The class given is binding, chick. On the procedure: as §1, §2, §3, §4
The target in a further test is α7 nACh receptor L106C. In kind it is binding, chick. On the procedure: as §1, §2, §3, §4
Another test addresses α7 nACh receptor L116C. In kind it is binding, chick. As to the method:
as §1, §2, §3, §4

The target of another test is α7 nACh receptor Q114C. The class given is binding, chick. On the procedure: as §1, §2, §3, §4
A further test deals with α7 nACh receptor Q55C. The class given is binding, chick. As to the method: as §1, §2, §3, §4
The target of a further test is α7 nACh receptor S144C. In kind it is binding, chick. On the procedure: as §1, §2, §3, §4
The next test has as its target α7 nACh receptor S162C. In kind it is binding, chick. On the procedure:
as §1, §2, §3, §4

Another test deals with α7 nACh receptor T146C. The class given is binding, chick. On the procedure:
as §1, §2, §3, §4

The target in test [3] is T3, human 5-HT3 receptors (Homo sapiens, UniProt P46098).
T3 construct: expressed in transfected cells; host or cells: HEK293
In kind it is binding. Conditions: concentration of up to 25 nM. On the procedure: as §1
(§5) Transfected HEK 293 cells were scraped into 0.6 ml of ice-cold 10 mM HEPES buffer (pH 7.4) and stored frozen. […] Non-specific binding was determined using 300 μM (−)-nicotine. […] Radioactivity was determined by scintillation in Ultima Gold XR (Perkin Elmer) using a Tri-Carb 2100 TR (PerkinElmer) scintillation counter. Final counts were monitored to ensure that binding never exceeded 10% of the added concentrations of radioligands. […]

The target of test [4] is mouse 5-HT3 receptors (Mus musculus, UniProt P23979). The class given is binding. Conditions: concentration of up to 25 nM. On the procedure:
as §1, §5
Target sequence in this assay (P23979 24-246 limits assumed): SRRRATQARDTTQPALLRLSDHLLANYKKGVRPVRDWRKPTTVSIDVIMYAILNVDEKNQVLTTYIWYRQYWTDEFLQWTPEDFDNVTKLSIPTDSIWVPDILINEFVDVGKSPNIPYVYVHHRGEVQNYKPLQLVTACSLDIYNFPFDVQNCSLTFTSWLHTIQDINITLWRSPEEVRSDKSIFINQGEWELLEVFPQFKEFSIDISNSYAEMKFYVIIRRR

For test [5], the target named is T3, human 5-HT3 receptors. Description: biochemical. In kind it is binding. As to the method:
as §1, §5

In test [6] the target is T4, mouse 5-HT3 receptors (Mus musculus, UniProt P23979).
T4 construct: expressed in transfected cells; host or cells: HEK293
Description: biochemical. The class given is binding. As to the method:
as §1, §5
T4 sequence (P23979 24-483 isoform P23979-2 limits assumed): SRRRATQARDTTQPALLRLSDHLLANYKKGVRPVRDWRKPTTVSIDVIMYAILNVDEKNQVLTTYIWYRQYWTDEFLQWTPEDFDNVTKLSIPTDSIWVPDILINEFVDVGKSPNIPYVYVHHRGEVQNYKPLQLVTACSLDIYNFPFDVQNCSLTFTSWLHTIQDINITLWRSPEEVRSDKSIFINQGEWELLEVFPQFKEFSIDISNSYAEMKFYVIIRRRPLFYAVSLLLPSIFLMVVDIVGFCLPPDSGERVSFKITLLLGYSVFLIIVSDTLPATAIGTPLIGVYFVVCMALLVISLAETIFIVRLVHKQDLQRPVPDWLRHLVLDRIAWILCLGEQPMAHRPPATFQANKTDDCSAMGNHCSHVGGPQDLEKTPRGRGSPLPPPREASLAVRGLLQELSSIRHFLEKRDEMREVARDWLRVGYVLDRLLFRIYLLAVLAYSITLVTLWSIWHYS

Another test relates to α7 nACh receptors W145F. On the set-up: method as in Li et al., 2011. Conditions: W145F ref Li et al., 2011; cited from earlier work.
Another test has as its system α7 nACh receptors Y184F. On the set-up: method as in Li et al., 2011. The note with it: Y184F ref Li et al., 2011; cited from earlier work.
The next test relates to α7 nACh receptors W53F. Details: method as in Li et al., 2011; Van Arnam et al., 2013. The note with it: W53F ref Li et al., 2011; Van Arnam et al., 2013; cited from earlier work.
Another test addresses α7 nACh receptors. On the set-up: method as in Li et al., 2011; Van Arnam et al., 2013. Conditions: before W53 substitution ref Li et al., 2011; Van Arnam et al., 2013; cited from earlier work.
Another test addresses α7 nACh receptors W53A. Details: method as in Li et al., 2011; Van Arnam et al., 2013. Conditions: W53 substituted by Ala ref Li et al., 2011; Van Arnam et al., 2013; cited from earlier work.
A further test concerns α7 nACh receptors L116A. Details: method as in Blum et al., 2013; Van Arnam et al., 2013. The note with it: L116 Ala mutation ref Blum et al., 2013, Van Arnam et al.; cited from earlier work.

SMILES strings stand for the structures.

By Kd is commonly meant the equilibrium constant for the complex coming apart. A high value points to a looser complex. For orientation: Ki means a dissociation constant, usually derived from enzyme kinetics or from competition with a known ligand. As a reminder, the EC50 is the concentration at which the effect is half-maximal.

T3 sequence (P46098 24-478): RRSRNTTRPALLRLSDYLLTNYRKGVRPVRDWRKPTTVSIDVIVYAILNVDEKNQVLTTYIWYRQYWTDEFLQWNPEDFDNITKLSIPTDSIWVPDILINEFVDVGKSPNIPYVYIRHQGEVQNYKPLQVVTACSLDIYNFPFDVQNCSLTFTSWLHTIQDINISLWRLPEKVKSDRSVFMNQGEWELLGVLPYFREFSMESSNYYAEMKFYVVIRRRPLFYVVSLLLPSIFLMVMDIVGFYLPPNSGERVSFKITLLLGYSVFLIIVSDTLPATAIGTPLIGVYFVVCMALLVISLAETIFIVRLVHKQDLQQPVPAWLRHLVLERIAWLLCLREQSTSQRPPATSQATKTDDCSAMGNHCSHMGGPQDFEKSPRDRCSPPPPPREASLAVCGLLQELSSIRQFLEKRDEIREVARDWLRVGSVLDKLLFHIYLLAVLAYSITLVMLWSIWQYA
T2 sequence (P22770+P23979 fused P22770:T225I/P22770:M226I): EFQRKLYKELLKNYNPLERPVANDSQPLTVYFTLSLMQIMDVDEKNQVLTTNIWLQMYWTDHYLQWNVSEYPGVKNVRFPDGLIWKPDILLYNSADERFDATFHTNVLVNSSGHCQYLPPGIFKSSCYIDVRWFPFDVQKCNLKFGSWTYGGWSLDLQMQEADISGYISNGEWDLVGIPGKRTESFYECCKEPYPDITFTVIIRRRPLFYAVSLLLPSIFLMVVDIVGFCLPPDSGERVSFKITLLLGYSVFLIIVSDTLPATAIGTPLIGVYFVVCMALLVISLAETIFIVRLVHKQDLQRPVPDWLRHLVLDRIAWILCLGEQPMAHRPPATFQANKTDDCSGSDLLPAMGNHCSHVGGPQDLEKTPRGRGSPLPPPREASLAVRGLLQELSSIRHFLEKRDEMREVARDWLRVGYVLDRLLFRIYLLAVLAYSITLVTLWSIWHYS
T1 sequence (P22770+P23979 fused P22770:T225I/P22770:M226I): as above

With `Clc1ccc(C2CC3CCC2N3)cn1` (stereo not drawn) [[^3H]epibatidine], the dissociation constant Kd on α7 nACh receptor N104C, on α7 nACh receptor W145C, on α7 nACh receptor W53C, on α7 nACh receptor Y184C, on α7 nACh receptor Y191C and at α7 nACh receptor Y91C was > 20 nM each time. The Kd was 8 nM in [1]; 33 nM on α7 nACh receptor C186A; 60 nM on α7 nACh receptor C187A; 8.7 nM on α7 nACh receptor D160C; 8.3 nM at α7 nACh receptor L106C; 5.1 nM at α7 nACh receptor L116C. The Kd was determined as 1.5 nM on α7 nACh receptor Q114C; 6.9 nM on α7 nACh receptor Q55C; 2.3 nM on α7 nACh receptor S144C; 7.2 nM at α7 nACh receptor S162C; 9.8 nM on α7 nACh receptor T146C. In addition, the “pKd Mean ± SEM” value in [2] is 8.09 ± 0.06; at α7 nACh receptor C186A (loop C, HEK 293 cells) it was 7.48 ± 0.10; on α7 nACh receptor C187A (loop C, HEK 293 cells) it was 7.22 ± 0.07; on α7 nACh receptor D160C (loop F, HEK 293 cells) it was 8.06 ± 0.10; at α7 nACh receptor L106C (loop E, HEK 293 cells), 8.08 ± 0.12; on α7 nACh receptor L116C (loop E, HEK 293 cells) it was 8.29 ± 0.05. Besides, the “pKd Mean ± SEM” value at α7 nACh receptor Q114C (loop E, HEK 293 cells) is listed as 8.82 ± 0.09; on α7 nACh receptor Q55C (loop D, HEK 293 cells) it was 8.16 ± 0.09; on α7 nACh receptor S144C (loop B, HEK 293 cells), 8.64 ± 0.12; on α7 nACh receptor S162C (loop F, HEK 293 cells), 8.14 ± 0.09; at α7 nACh receptor T146C (loop B, HEK 293 cells) it was 8.01 ± 0.07. The saturable binding entry at human 5-HT3 receptors [3] and on mouse 5-HT3 receptors [4] was “not detected” each time.
Take `Clc1ccc(C2CC3CCC2N3)cn1` (stereo not drawn) [epibatidine]: in the test on α7 nACh receptor Q114C, the “increase in affinity relative to wild type” value is reported as 5 fold. For the same molecule, the Ki at human 5-HT3 receptors [5] is 2510 nM; at mouse 5-HT3 receptors [6], 12.3 µM. Besides, the “reduction of affinity by mutation” value in the test on α7 nACh receptors W145F is recorded as > 2200 fold. In the test on α7 nACh receptors Y184F, the “change of affinity by mutation” value is > 250 fold. In addition, in the test on α7 nACh receptors W53F, the “affinity change by mutation” value is listed as 4 fold. In addition, the 50% effective concentration (EC50) is 340 nM on α7 nACh receptors and 5.8 µM on α7 nACh receptors W53A. Besides, in the test with α7 nACh receptors L116A, the “change in the EC50 by mutation” value is given as 9 fold.

(Values after PMC5390772 (Neuropharmacology, 2017).)
